Test results published in US20170334899A1, “AMINO-SUBSTITUTED ISOTHIAZOLES” (Bayer Pharma Aktiengesellschaft, priority 2014, published 2017).

Assays:
HeLa = test: Proliferation assay (crystal violet), HeLa; type: cell-based; details: Homo sapiens, HeLa, 96 h, HeLa cells; 4 days incubation; crystal violet staining; read-out: IC50 inhibition of proliferation, HeLa
Method in brief: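 Absorbance at 595 nm of crystal-violet-stained cells after 4 days' exposure to 0.001–10 μM compound (0.5% DMSO). Values normalized to a day-0 plate (0%) and untreated cells (100%); IC50 by 4-parameter fit.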

CDK2/CycE = target: T1, CDK2/CycE (Homo sapiens, UniProt P24941); test: CDK2/CycE kinase assay (TR-FRET); type: biochemical; details: avg, read-out: CDK2 avg (IC50 [mol/l])
T1 construct: GST; purchased ProQinase GmbH (Freiburg, Germany); host or cells: insect cells (Sf9)
Method in brief: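 Read-out is a TR-FRET 665/620 nm emission ratio from EDTA-stopped reactions detected with anti-pRB(pSer807/pSer811), Eu-labelled anti-mouse IgG and streptavidin-XL665, scaled between no-enzyme and uninhibited wells. Reaction: Sf9-expressed GST-CDK2/GST-CycE, 15 min compound preincubation, 10 μM ATP, 0.75 μM biotin-peptide, 25 min, 22° C., pH 8.0 Tris buffer.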

Cc1nsc(Nc2cnc(C(F)(F)F)cn2)c1C(=O)Nc1ccc(F)c(O[C@@H]2CCN(CCC(F)(F)F)C2)c1 [Example 414, N-(4-Fluoro-3-{[(3R)-1-(3,3,3-trifluoropropyl)pyrrolidin-3-yl]oxy}phenyl)-3-methyl-5-{[5-(trifluoromethyl)pyrazin-2-yl]amino}-1,2-thiazole-4-carboxamide]
IC50 (HeLa): 0.29 µM | IC50 (CDK2/CycE): > 20 µM

Cc1nsc(Nc2cnc(C(F)(F)F)cn2)c1C(=O)Nc1ccc(F)c(O[C@H]2CCN(CCC(F)(F)F)C2)c1 [Example 415, N-(4-Fluoro-3-{[(3S)-1-(3,3,3-trifluoropropyl)pyrrolidin-3-yl]oxy}phenyl)-3-methyl-5-{[5-(trifluoromethyl)pyrazin-2-yl]amino}-1,2-thiazole-4-carboxamide]
IC50 (HeLa): 0.35 µM | IC50 (CDK2/CycE): > 20 µM

Cc1nsc(Nc2cnc(C(F)(F)F)cn2)c1C(=O)Nc1ccc(F)c(O[C@H]2CCN(CC(F)(F)F)C2)c1 [Example 416, N-(4-Fluoro-3-{[(35)-1-(2,2,2-trifluoroethyl)pyrrolidin-3-yl]oxy}phenyl)-3-methyl-5-{[5-(trifluoromethyl)pyrazin-2-yl]amino}-1,2-thiazole-4-carboxamide]
IC50 (HeLa): 0.25 µM | IC50 (CDK2/CycE): > 20 µM

Cc1nsc(Nc2cnc(C(F)(F)F)cn2)c1C(=O)Nc1ccc(F)c(O[C@H]2CCN(CC(F)F)C2)c1 [Example 417, N-(3-{[(3S)-1-(2,2-Difluoroethyl)pyrrolidin-3-yl]oxy}-4-fluorophenyl)-3-methyl-5-{[5-(trifluoromethyl)pyrazin-2-yl]amino}-1,2-thiazole-4-carboxamide]
IC50 (HeLa): 0.41 µM | IC50 (CDK2/CycE): > 20 µM

Cc1nsc(Nc2cnc(C(F)(F)F)cn2)c1C(=O)Nc1ccc(F)c(OC[C@H]2CCCN(CCC(F)(F)F)C2)c1 [Example 418, N-(4-Fluoro-3-{[(3S)-1-(3,3,3-trifluoropropyl)piperidin-3-yl]methoxy}phenyl)-3-methyl-5-{[5-(trifluoromethyl)pyrazin-2-yl]amino}-1,2-thiazole-4-carboxamide]
IC50 (HeLa): 1.2 µM | IC50 (CDK2/CycE): > 20 µM

Cc1nsc(Nc2cnc(C(F)(F)F)cn2)c1C(=O)Nc1ccc(F)c(OC[C@H]2CCCN(CC(F)(F)F)C2)c1 [Example 419, N-(4-Fluoro-3-{[(3S)-1-(2,2,2-trifluoroethyl)piperidin-3-yl]methoxy}phenyl)-3-methyl-5-{[5-(trifluoromethyl)pyrazin-2-yl]amino}-1,2-thiazole-4-carboxamide]
IC50 (HeLa): 0.76 µM | IC50 (CDK2/CycE): > 20 µM

Cc1nsc(Nc2cnc(C(F)(F)F)cn2)c1C(=O)Nc1ccc(CCC2CCN(CCC(F)(F)F)CC2)nc1 [Example 420, 3-Methyl-5-{[5-(trifluoromethyl)pyrazin-2-yl]amino}-N-(6-{2-[1-(3,3,3-trifluoro-propyl)piperidin-4-yl]ethyl}pyridin-3-yl)-1,2-thiazole-4-carboxamide]
IC50 (HeLa): 0.63 µM | IC50 (CDK2/CycE): > 20 µM

Cc1nsc(Nc2cnc(C(F)(F)F)cn2)c1C(=O)Nc1ccc(OCCNC(=O)C(F)(F)F)nc1 [Example 425, 3-Methyl-N-(6-{2-[(trifluoroacetyl)amino]ethoxy}pyridin-3-yl)-5-{[5-(trifluoro-methyl)pyrazin-2-yl]amino}-1,2-thiazole-4-carboxamide]
IC50 (HeLa): 1.3 µM | IC50 (CDK2/CycE): ≥ 20 µM

Cc1nsc(Nc2cnc(C(F)(F)F)cn2)c1C(=O)Nc1ccc(F)c(OCCCNC(=O)C(F)(F)F)c1 [Example 427, N-(4-Fluoro-3-{3-[(trifluoroacetyl)amino]propoxy}phenyl)-3-methyl-5-{[5-(trifluoro-methyl)pyrazin-2-yl]amino}-1,2-thiazole-4-carboxamide]
IC50 (HeLa): 0.86 µM | IC50 (CDK2/CycE): ≥ 20 µM

Cc1nsc(Nc2cnc(C(F)(F)F)cn2)c1C(=O)Nc1ccc(OCCCNC(=O)C(F)(F)F)nc1 [Example 428, 3-Methyl-N-(6-{3-[(trifluoroacetyl)amino]propoxy}pyridin-3-yl)-5-{[5-(trifluoro-methyl)pyrazin-2-yl]amino}-1,2-thiazole-4-carboxamide]
IC50 (HeLa): 1.3 µM | IC50 (CDK2/CycE): > 20 µM

Cc1nsc(Nc2cnc(C(F)(F)F)cn2)c1C(=O)Nc1ccc(OCCN(C)C(=O)OC(C)(C)C)nc1 [Example 429, tert-Butyl methyl{2-[(5-{[(3-methyl-5-{[5-(trifluoromethyl)pyrazin-2-yl]amino}-1,2-thiazol-4-yl)carbonyl]amino}pyridin-2-yl)oxy]ethyl}carbannate]
IC50 (HeLa): 0.26 µM | IC50 (CDK2/CycE): > 20 µM

Cc1nsc(Nc2cncc(C(F)(F)F)n2)c1C(=O)Nc1ccc(OCCN(C)C(=O)OC(C)(C)C)nc1 [Example 430, tert-Butyl methyl{2-[(5-{[(3-methyl-5-{[6-(trifluoromethyl)pyrazin-2-yl]amino}-1,2-thiazol-4-yl)carbonyl]amino}pyridin-2-yl)oxy]ethyl}carbannate]
IC50 (HeLa): 0.92 µM | IC50 (CDK2/CycE): > 20 µM

Cc1nsc(Nc2cnc(C(F)(F)F)cn2)c1C(=O)Nc1ccc(OC2CCNCC2)c(F)c1 [Example 431, N-[3-Fluoro-4-(piperidin-4-yloxy)phenyl]-3-methyl-5-{[5-(trifluoromethyl)pyrazin-2-yl]amino}-1,2-thiazole-4-carboxamide]
IC50 (HeLa): > 10 µM | IC50 (CDK2/CycE): > 20 µM

Cc1nsc(Nc2cnc3ccccc3n2)c1C(=O)Nc1cccc(NC(=O)C(F)(F)F)c1 [Example 432, 3-Methyl-5-(quinoxalin-2-ylamino)-N-{3-[(trifluoroacetyl)amino]phenyl}-1,2-thiazole-4-carboxamide]
IC50 (HeLa): > 10 µM | IC50 (CDK2/CycE): > 20 µM

Cc1nsc(Nc2cnc3ccccc3n2)c1C(=O)Nc1ccc(NCCN(C)C(=O)OC(C)(C)C)nc1 [Example 434, tert-Butyl methyl(2-{[5-({[3-methyl-5-(quinoxalin-2-ylamino)-1,2-thiazol-4-yl]carbonyl}amino)pyridin-2-yl]amino}ethyl)carbamate]
IC50 (HeLa): 8 µM | IC50 (CDK2/CycE): > 20 µM

CC(=O)Nc1ccc(NC(=O)c2c(C)nsc2Nc2ccc(C#N)cn2)cn1 [Example 435, N-(6-Acetamidopyridin-3-yl)-5-[(5-cyanopyridin-2-yl)amino]-3-methyl-1,2-thiazole-4-carboxamide]
IC50 (HeLa): > 10 µM | IC50 (CDK2/CycE): > 20 µM
